Assay results from US10821115B2, “Compounds that inhibit Mcl-1 protein” (priority 2017, dated 2020).
Like-named read-outs stand apart in the source and are kept apart here.

System: human multiple myeloma cell line, OPM-2
Test: Cell viability assay (OPM-2 10 FBS), CellTiter-Glo
Type: cell-based
Method: Cell viability assay (OPM-2 10 FBS)
The human multiple myeloma cell line, OPM-2, was cultured in complete growth medium containing RPMI 1640 and 10% fetal bovine serum (FBS). Cells were seeded into 384-well plates at 3000 cells/well density in complete growth medium containing 10% FBS, and incubated for 16 h with serially diluted test compounds in a 37° C. incubator with 5% CO2. Cell viability was tested using CellTiter-Glo® assay (Promega, Madison, Wis.) according to the manufacturer recommendations. Luminescence was determined using an EnVision® Multilabel plate reader 25 min after the addition of detection reagent. IC50 values were then calculated with Xlfit using a logistical 4-parameter fit model in GraphPad Prism (GraphPad Software, San Diego, Calif.) or in Genedata Screener® (Genedata, Basel, Switzerland).

[1] = Homo sapiens, OPM-2, 16 h, read-out: OPM-2 10% FBS IC50 IP, OPM-2 cells, 10% FBS, 16 h, CellTiter-Glo
[2] = Homo sapiens, OPM-2, 16 h, read-out: OPM-2 10% FBS IC50 IP, OPM-2 cells, 10% FBS, 16 h incubation
[3] = read-out: OPM-2 10% FBS IC50 IP, OPM-2 cells, 10% FBS, 16 h incubation

In the case of `COC(=O)[C@H](NC(=O)C[C@]1(OC)/C=C/C[C@H](C)[C@@H](C)S(=O)(=O)NC(=O)c2ccc3c(c2)N(C[C@@H]2CC[C@H]21)C[C@@]1(CCCc2cc(Cl)ccc21)CO3)[C@@H](C)O` [Example 100581, methyl N-(((1S,3′R,6′R,7′S,8′E,11′S,12′R)-6-chloro-7′-methoxy-11′,12′-dimethyl-13′,13′-dioxido-15′-oxo-3,4-dihydro-2H-spiro[naphthalene-1,22′-[20]oxa[13]thia[1,14]diazatetracyclo [14.7.2.0~3,6~.0~19,24~]pentacosa[8,16,18,24]tetraen]-7′-yl)acetyl)-D-allothreoninate], the IC50 [1] is reported as 1540 nM.

Work on `CCO[C@]1(CN2CCN(C3COC3)CC2)/C=C/C[C@H](C)[C@@H](C)S(=O)(=O)NC(=O)c2ccc3c(c2)N(C[C@@H]2CC[C@H]21)C[C@@]1(CCCc2cc(Cl)ccc21)CO3` [Example 2, (1 S,3′R,6′R,7′R,8′E,11′S,12′R)-6-chloro-7′-ethoxy-11′,12′-dimethyl-7′-((4-(3-oxetanyl)-1-piperazinyl)methyl)-3,4-dihydro-2H, 15′H-spiro[naphthalene-1,22′-[20]oxa[13]thia[1,14]diazatetracyclo[14.7.2.0-3,6˜.0˜19,24˜]pentacosa[8,16,18,24]tetraen]-15′-one 13′,13′-dioxide] yielded an IC50 [2] of 76 nM.

Work on `CO[C@@]1(CN2CCC(N3CCOCC3)CC2)/C=C/C[C@H](C)[C@@H](C)S(=O)(=O)NC(=O)c2ccc3c(c2)N(C[C@@H]2CC[C@H]21)C[C@@]1(CCCc2cc(Cl)ccc21)CO3` [Example 263, (1S,3′R,6′R,7′S,8′E,11′S,12′R)-6-chloro-7′-methoxy-11′,12′-dimethyl-7′-((4-(4-morpholinyl)-1-piperidinyl)methyl)-3,4-dihydro-2H,15′H-spiro[naphthalene-1,22′-[20]oxa[13]thia[1,14]diazaetracyclo [14.7.2.0~3,6~.0~19,24~]pentacosa[8,16,18,24]tetraen]-15′-one 13′,13′-dioxide] yielded an IC50 [2] of 124 nM.

With `CO[C@@]1(CN2CCN3CCN(S(C)(=O)=O)C[C@@H]3C2)/C=C/C[C@H](C)[C@@H](C)S(=O)(=O)NC(=O)c2ccc3c(c2)N(C[C@@H]2CC[C@H]21)C[C@@]1(CCCc2cc(Cl)ccc21)CO3` [Example 228] the IC50 [2] was 93.1 nM.

`CCN(CC)C(=O)C[C@]1(OC)/C=C/C[C@H](C)[C@@H](C)S(=O)(=O)NC(=O)c2ccc3c(c2)N(C[C@@H]2CC[C@H]21)C[C@@]1(CCCc2cc(Cl)ccc21)CO3` [Example 100347, 2-((1S,3′R,6′R,7′S,8′E,11′S,12′R)-6-chloro-7′-methoxy-11′,12′-dimethyl-13′,13′-dioxido-15′-oxo-3,4-dihydro-2H-spiro[naphthalene-1,22′-[20]oxa[13]thia[1,14]diazatetracyclo [14.7.2.0~3,6~.0~19,24~]pentacosa[8,16,18,24]tetraen]-7′-yl)-N,N-diethylacetamide] showed an IC50 [1] of 1080 nM.

`CO[C@@]1(CC(=O)NCc2ncco2)/C=C/C[C@H](C)[C@@H](C)S(=O)(=O)NC(=O)c2ccc3c(c2)N(C[C@@H]2CC[C@H]21)C[C@@]1(CCCc2cc(Cl)ccc21)CO3` [Example 100577, 2-((1S,3′R,6′R,7′S,8′E,11′S,12′R)-6-chloro-7′-methoxy-11′,12′-dimethyl-13′,13′-dioxido-15′-oxo-3,4-dihydro-2H-spiro[naphthalene-1,22′-[20]oxa[13]thia[1,14]diazatetracyclo [14.7.2.0~3,6~.0~19,24~]pentacosa[8,16,18,24]tetraen]-7′-yl)-N-(1,3-oxazol-2-ylmethyl)acetamide] showed an IC50 [1] of 2020 nM.

In the case of `C[C@@H]1[C@@H](C)C/C=C/C(O)(CN2CCN3CCCC[C@@H]3C2)[C@@H]2CC[C@H]2CN2C[C@@]3(CCCc4cc(Cl)ccc43)COc3ccc(cc32)C(=O)NS1(=O)=O` (single isomer, unassigned) [Example 242], the IC50 [3] is reported as 791 nM.

Compound `C[C@@H]1[C@@H](C)CCC[C@@](CO)(CN2CCOCC2)[C@@H]2CC[C@H]2CN2C[C@@]3(CCCc4cc(Cl)ccc43)COc3ccc(cc32)C(=O)NS1(=O)=O` [Example 100341, (1S,3′R,6′R,7′S,11′S,12′R)-6-chloro-7′-(hydroxymethyl)-11′,12′-dimethyl-7′-(4-morpholinylmethyl)-3,4-dihydro-2H,15′H-spiro[naphthalene-1,22′-[20]oxa[13]thia[1,14]diazatetracyclo [14.7.2.0~3,6~.0~19,24~]pentacosa[16,18,24]trien]-15′-one 13′,13′-dioxide] has an IC50 [1] of 1940 nM.

With `CO[C@]1(CN2CCN(CC(F)(F)F)CC2)/C=C/C[C@H](C)[C@@H](C)S(=O)(=O)NC(=O)c2ccc3c(c2)N(C[C@@H]2CC[C@H]21)C[C@@]1(CCCc2cc(Cl)ccc21)CO3` [Example 93, (1S,3′R,6′R,7′R,8′E,11′S,12′R)-6-chloro-7′-methoxy-11′,12′-dimethyl-7′-((4-(2,2,2-trifluoroethyl)-1-piperazinyl)methyl)-3,4-dihydro-2H,15′H-spiro[naphthalene-1,22′-[20]oxa[13]thia[1,14]diazatetracyclo [14.7.2.0~3,6~.0~19,24~]pentacosa[8,16,18,24]tetraen]-15′-one 13′,13′-dioxide] the IC50 [2] was 924 nM.

For `CO[C@]1(CN2CCN3CCS(=O)(=O)C[C@@H]3C2)/C=C/C[C@H](C)[C@@H](C)S(=O)(=O)NC(=O)c2ccc3c(c2)N(C[C@@H]2CC[C@H]21)C[C@@]1(CCCc2cc(Cl)ccc21)CO3` [Example 219], the IC50 [3] was 47 nM.

`CCO[C@]1(CN2CCN(C(C)C)CC2)/C=C/C[C@H](C)[C@@H](CCOC)S(=O)(=O)NC(=O)c2ccc3c(c2)N(C[C@@H]2CC[C@H]21)C[C@@]1(CCCc2cc(Cl)ccc21)CO3` [Example 16, (1S,3′R,6′R,7′R,8′E,11′S,12′R)-6-chloro-7′-ethoxy-12′-(2-methoxyethyl)-11′-methyl-7′-((4-(1-methylethyl)-1-piperazinyl)methyl)-3,4-dihydro-2H, 15′H-spiro[naphthalene-1,22′-[20]oxa[13]thia[1,14]diazatetracyclo[14.7.2.0-3,6˜.0˜19,24˜]pentacosa[8,16,18,24]tetraen]-15′-one 13′,13′-dioxide] showed an IC50 [2] of 53 nM.

For `CO[C@@]1(CN2CCN3CCN(C(C)=O)C[C@@H]3C2)/C=C/C[C@H](C)[C@@H](C)S(=O)(=O)NC(=O)c2ccc3c(c2)N(C[C@@H]2CC[C@H]21)C[C@@]1(CCCc2cc(Cl)ccc21)CO3` (single isomer, unassigned) [Example 226], the IC50 [3] was 49 nM.

With `CCO[C@]1(CN2CCN(C(C)C)[C@H](C)C2)/C=C/C[C@H](C)[C@@H](C)S(=O)(=O)NC(=O)c2ccc3c(c2)N(C[C@@H]2CC[C@H]21)C[C@@]1(CCCc2cc(Cl)ccc21)CO3` [Example 9, (1 S,3′R,6′R,7′R,8′E,11′S, 12′R)-6-CHLORO-7′-ETHOXY-11′,12′-DIMETHYL-7′-(((3R)-3-METHYL-4-(1-METHYLETHYL)-1-PIPERAZINYL)METHYL)-3,4-DIHYDRO-2H, 15′H-SPIRO[NAPHTHALENE-1,22′-[20]OXA[13]THIA[1,14]DIAZATETRACYCLO[14.7.2.0-3,6˜.0˜19,24˜]PENT ACOSA[8,16,18,24]TETRAEN]-15′-ONE 13′,13′-DIOXIDE] the IC50 [3] was 50 nM.

Compound `CO[C@@]1(C(=O)N(C)C)/C=C/C[C@H](C)[C@@H](C)S(=O)(=O)NC(=O)c2ccc3c(c2)N(C[C@@H]2CC[C@H]21)C[C@@]1(CCCc2cc(Cl)ccc21)CO3` [Example 176, (1S,3′R,6′R,7′S,8′E,11′S,12′R)-6-chloro-7′-methoxy-N,N, 11′,12′-tetramethyl-15′-oxo-3,4-dihydro-2H-spiro[naphthalene-1,22′-[20]oxa[13]thia[1,14]diazatetracyclo[14.7.2.0-3,6˜.0˜19,24˜]pentacosa[8,16,18,24]tetraene]-7′-carboxamide 13′,13′-dioxide] has an IC50 [3] of 149 nM.

Work on `CO[C@@]1(CN2CCN(C3COC3)CC2)/C=C/C[C@H](C)[C@@H](C)S(=O)(=O)NC(=O)c2ccc3c(n2)N(C[C@@H]2CC[C@H]21)C[C@@]1(CCCc2cc(Cl)ccc21)CO3` [Example 19, (1 S,3′R,6′R,7′S,8′E,11′S,12′R)-6-chloro-7′-methoxy-11′,12′-dimethyl-7′-((4-(3-oxetanyl)-1-piperazinyl)methyl)-3,4-dihydro-2H, 15′H-spiro[naphthalene-1,22′-[20]oxa[13]thia[1,14,25]triazatetracyclo[14.7.2.0-3,6˜.0˜19,24˜]pentacosa[8,16,18,24]tetraen]-15′-one 13′,13′-dioxide] yielded an IC50 [2] of 47 nM.

With `CO[C@@]1(CN2CCN(CC(=O)O)CC2)/C=C/C[C@H](C)[C@@H](C)S(=O)(=O)NC(=O)c2ccc3c(c2)N(C[C@@H]2CC[C@H]21)C[C@@]1(CCCc2cc(Cl)ccc21)CO3` [Example 270, (4-(((1S,3′R,6′R,7′S,8′E,11′S,12′R)-6-CHLORO-7′-METHOXY-11′,12′-DIMETHYL-13′,13′-DIOXIDO-15′-OXO-3,4-DIHYDRO-2H-SPIRO[NAPHTHALENE-1,22′-[20]OXA[13]THIA[1,14]DIAZATETRACYCLO[14.7.2.0-3,6˜.0˜19,24˜]PENT ACOSA[8,16,18,24]TETRAEN]-7′-YL)METHYL)-1-PIPERAZINYL)ACETIC ACID] the IC50 [2] was 4860 nM.

For `CO[C@@]1(CN2CCN3CCN(C)C[C@@H]3C2)/C=C/C[C@H](C)[C@@H](C)S(=O)(=O)NC(=O)c2ccc3c(c2)N(C[C@@H]2CC[C@H]21)C[C@@]1(CCCc2cc(Cl)ccc21)CO3` (single isomer, unassigned) [Example 217], the IC50 [3] was 192 nM.
